Assay results: patent US9464064B2, “HCV helicase inhibitors and methods of use thereof” (University of Kansas, priority 2011, dated 2016)
Starred links: 1 amine or outer side, 2 acyl side, 3 side chain; linkers in the order of their positions; H or OH if unused. Positions of bridges follow the written chain, without caps; N, C: chain ends. Non-standard residues stand in square brackets, D forms with d. Residues, ends and D or L forms follow the SMILES beside them. Chains are numbered I, II in the order given. Actinocin(1to9) = Cc1c2oc3c(C)ccc(C(=O)[*:2])c3nc-2c(C(=O)[*:1])c(N)c1=O; NMeV = CN[C@H](C(=O)O)C(C)C; Sar = CNCC(=O)O

Biological target: T1, HCV NS3 helicase NS3h_1b(con1) (Hepatitis C virus genotype 1b, UniProt Q9WMX2)
T1 construct: truncated C-terminally His-tagged NS3 proteins lacking the N-terminal protease, called NS3h; His-tag (C); made in house
T1 sequence (Q9WMX2 1192-1657): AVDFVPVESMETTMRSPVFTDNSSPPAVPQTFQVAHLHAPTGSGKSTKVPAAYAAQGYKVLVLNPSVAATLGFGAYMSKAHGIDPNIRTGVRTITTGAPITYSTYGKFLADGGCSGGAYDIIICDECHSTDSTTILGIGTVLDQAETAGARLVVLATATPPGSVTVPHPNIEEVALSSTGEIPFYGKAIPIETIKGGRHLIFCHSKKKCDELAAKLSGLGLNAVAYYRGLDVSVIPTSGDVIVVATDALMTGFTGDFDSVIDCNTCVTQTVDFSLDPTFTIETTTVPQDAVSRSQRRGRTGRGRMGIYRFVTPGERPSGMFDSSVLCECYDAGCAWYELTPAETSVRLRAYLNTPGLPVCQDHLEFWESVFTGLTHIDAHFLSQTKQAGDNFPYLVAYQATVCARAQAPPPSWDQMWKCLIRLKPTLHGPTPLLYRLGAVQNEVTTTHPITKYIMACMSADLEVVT
Assay: MBHA screen of NCI mechanistic set library at 20 μM (percent inhibition, compound interference)
Assay type: biochemical
Conditions: compounds at 20 μM; for Inh. (%) (Inhibition): calculated from Equation 1
Description: All molecular beacon-based helicase assays (MBHAs) were performed according to known methods (Belon & Frick (2008) supra; Belon & Frick (2009) supra). […] In each flat, black 384-well plate, 56 compounds were tested, in triplicate, along with three negative controls (DMSO only), three positive controls (500 nM dT20), and two wells with no enzyme. Fluorescence was read before ATP (F0) addition and 30 minutes after ATP was added to 1 mM (F30) using a Tecan Infinite M200 fluorescence microplate reader with excitation and emission wavelengths set to 643 and 670 nm, respectively. Percent inhibition was calculated with equation 1, and compound interference in the MBHA was calculated with equation 2.
In Equations 1 and 2, Fc0 is the fluorescence of the reactions containing the test compound before adding ATP, Fc30 is the fluorescence of the test compound reaction 30 minutes after adding ATP. F(−)0 is the average of three DMSO-only negative control reactions before adding ATP and F(−)30 is the average of three DMSO-only reactions 30 minutes after adding ATP.
To identify HCV helicase inhibitors, the MBHA was first used to screen the National Cancer Institute Developmental Therapeutics Program's mechanistic set library. In total, 827 compounds (at 20 μM) were screened using a MBHA with a DNA substrate (Table 1). Compounds were ranked by their ability to inhibit HCV helicase-catalyzed DNA unwinding as calculated from Equation 1.
Compound interference in the MBHA was evaluated by comparing the fluorescence of reactions containing each compound to the fluorescence of DMSO-only negative controls before ATP was added.

[1] = MBHA with DNA substrate, assay interference calculated with Equation 2
[2] = assay interference calculated with Equation 2 (fluorescence vs DMSO-only controls before ATP)

Compound | Int.* (Ratio) (Interference) [1] | Inh. (%) (Inhibition) (MBHA with DNA substrate) | Inh. (%) (Inhibition) (MBHA with a DNA substrate) | Int.* (Ratio) (Interference) [2]
CC[C@H](C)[C@@H]1NC(=O)[C@@H](NC(=O)c2c3nc4c(C(=O)N[C@@H]5C(=O)N[C@@H](C(C)C)C(=O)N6CCC[C@H]6C(=O)N(C)CC(=O)N(C)[C@@H](C(C)C)C(=O)O[C@@H]5C)ccc(C)c4oc-3c(C)c(=O)c2N)[C@@H](C)OC(=O)[C@H](C(C)C)N(C)C(=O)CN(C)C(=O)[C@@H]2CCCN2C1=O [Compound 18268] (I: TIP[Sar][NMeV] / II: TVP[Sar][NMeV]; ester I:1-I:C, II:1-II:C; linker I:N-II:N via Actinocin(1to9)) | 0.61 | 27.6 | – | –
CC(C)c1cccc(O)c(=O)c1 [Compound 18804] | 0.97 | 15.2 | – | –
CC(C)c1ccc(O)c(=O)cc1 [Compound 18805] | 0.98 | 31.0 | – | –
CN(C)CCCN1c2ccccc2Sc2ccc3ccccc3c21 [Compound 18891] | – | – | −4.0 | 0.89
CCCCCCCCCCCCC(O)C(=O)O (stereo not shown) [Compound 18938] | 1.06 | 1.7 | – | –
CCN(CC)CCOc1ccc(C(O)(Cc2ccc(OC)cc2)c2ccccc2)cc1 (stereo not shown) [Compound 19857] | – | – | 7.4 | 1.05
COC(=O)C1C(O)C(C)C(O)C(C)/C=C\C=C(C)C(=O)Nc2c(C)c(OC(C)=O)c3c(c2O)C(=O)C(C)=C2OCOC(=C23)C(C)=CC(C)(O)C(O)C(C)C1O (stereo not shown) [Compound 19990] | 0.96 | 25.1 | – | –
Nc1nc2c(ncn2[C@@H]2O[C@H](CO)[C@@H](O)[C@H]2O)c(=O)[nH]1 [Compound 19994] | – | – | 10.4 | 1.05
CCCCOCc1cc(CN2CCN(C)CC2)c(O)c2ncccc12 [Compound 20514] | – | – | −19.2 | 1.06
CCN(CCO)CCNc1ccc(C)c2sc3ccccc3c(=O)c12 [Compound 20534] | 0.96 | 15.7 | – | –
Cc1cn(C2CC(O)C(CO)O2)c(=O)[nH]c1=O (stereo not shown) [Compound 21548] | 0.98 | 2.1 | – | –
O=c1oc2cc(O)ccc2c2oc3cc(O)ccc3c12 [Compound 22842] | 1.10 | 1.5 | – | –
CC(CN(C)C)C(=O)c1ccccc1C(=O)O (stereo not shown) [Compound 22992] | 0.86 | 25.9 | – | –
CN(CCc1ccccn1)c1ccc2c(c1)C(=O)c1ccccc1-2 [Compound 24048] | 1.11 | −12.7 | – | –
CN(C)CCCN1c2ccc3ccccc3c2Sc2cccc(Cl)c21 [Compound 24113] | – | – | 11.0 | 0.81
CO[C@H](C(=O)[C@@H](O)[C@@H](C)O)[C@@H]1Cc2cc3cc(O[C@H]4C[C@@H](O[C@H]5C[C@@H](O)[C@H](O)[C@@H](C)O5)[C@H](O)[C@@H](C)O4)c(C)c(O)c3c(O)c2C(=O)[C@H]1O[C@H]1C[C@@H](O[C@H]2C[C@@H](O[C@H]3C[C@](C)(O)[C@H](O)[C@@H](C)O3)[C@@H](O)[C@@H](C)O2)[C@H](O)[C@@H](C)O1 [Compound 24559] | 0.91 | 36.0 | – | –
COc1cc([C@@H]2c3cc4c(c(O)c3C[C@H]3COC(=O)[C@@H]32)OCO4)cc(OC)c1O [Compound 24817] | 0.99 | 15.4 | – | –
COc1cc(C2c3cc4c(cc3C(O)C3COC(=O)C23)OCO4)cc(OC)c1OC (stereo not shown) [Compound 24818] | 1.07 | −2.7 | – | –
COc1cc([C@@H]2c3cc4c(c(O)c3C[C@H]3COC(=O)[C@@H]32)OCO4)cc(OC)c1OC [Compound 24819] | 1.12 | −0.3 | – | –

Compound | Int.* (Ratio) (Interference) [1] | Inh. (%) (Inhibition) (MBHA with DNA substrate) | Inh. (%) (Inhibition) (MBHA with a DNA substrate) | Int.* (Ratio) (Interference) [2]
CC(C)C1=CC2=CC[C@@H]3[C@](C)(CCC[C@@]3(C)C(=O)O)[C@H]2CC1 [Compound 25149] | 0.93 | −11.6 | – | –
OC(CN1CCCCC1)c1ccc(/C=C/c2ccc(Cl)cc2)cc1 (stereo not shown) [Compound 26040] | 0.97 | −17.0 | – | –
O=C1Nc2c(Cl)cc(Cl)cc2C1=O [Compound 26045] | 0.92 | −13.7 | – | –
OCC1OC(n2cnc3c(SCc4ccccc4)ncnc32)C(O)C1O (stereo not shown) [Compound 26273] | – | – | −6.4 | 0.89
Cc1c2ccc3ccccc3c2c[n+]2ccccc12.[Cl-] [Compound 28002] | 1.08 | 27.1 | – | –
Cl.Nc1nc(N)c2ncn(-c3ccccc3)c2n1 [Compound 29603] | – | – | −5.0 | 0.99
O=C([O][Hg][CH2]C1COC([CH2][Hg][O]C(=O)c2ccccc2)CO1)c1ccccc1 (stereo not shown) [Compound 30916] | 0.93 | 19.0 | – | –
Nc1ccc2nc3ccc(=O)cc-3n(-c3ccccc3)c2c1 [Compound 31702] | 0.92 | −9.7 | – | –
NC(=O)NO [Compound 32065] | 1.01 | 3.7 | – | –
CC[C@H]1CN2CCc3cc(OC)c(OC)cc3[C@@H]2C[C@@H]1C[C@H]1NCCc2cc(O)c(OC)cc21 [Compound 32944] | – | – | −28.9 | 1.02
CC(/C=N/N=C(N)N)=N\N=C(N)N [Compound 32946] | 1.07 | −13.6 | – | –
COc1cc(/C=C/C(=O)CC(=O)/C=C/c2ccc(O)c(OC)c2)ccc1O [Compound 32982] | 0.90 | 15.0 | – | –
COc1c(O[C@@H]2O[C@H](CO)[C@@H](O)[C@H](O)[C@H]2O)cc2c(c1OC)-c1ccc(OC)c(=O)cc1[C@@H](NC(C)=O)CC2 [Compound 32992] | – | – | −28.7 | 1.04
Oc1ccc(-c2nc3ccccc3s2)cc1 [Compound 33004] | 1.00 | −0.9 | – | –
CC(=O)Nc1ccc(-c2nc3ccccc3s2)cc1 [Compound 33006] | 0.89 | 15.9 | – | –
COc1cc2c(c(OC)c1OC)-c1ccc(OC)c(=O)cc1[C@@H](NC(=O)c1ccccc1)CC2 [Compound 33410] | – | – | −28.8 | 1.16
CCN1C=C/C(=C\C=C\c2cc[n+](CC)c3ccccc23)c2ccccc21.[I-] [Compound 34391] | 0.24 | 100.6 | – | –
COc1c2c(c(OC)c3c1c(=O)c1ccccc1n3C)OCO2 [Compound 34757] | 0.98 | −7.4 | – | –
O=S(=O)(O)c1cc(N=Nc2cc(S(=O)(=O)O)c3ccccc3c2O)ccc1/C=C/c1ccc(N=Nc2cc(S(=O)(=O)O)c3ccccc3c2O)cc1S(=O)(=O)O.[Na+] [Compound 34931] | 0.90 | 89.2 | – | –
